Molecular target: PD-1/PD-L1 (Homo sapiens, UniProt Q9NZQ7)
Assay: TR-FRET PD-1/PD-L1 binding inhibition at the molecular level (free proteins)
Details: Tag1-PD-L1 and Tag2-PD-1 proteins, twelve concentrations from 200 nM, 2 hours at room temperature, read-out: FRET assay (IC50)
How it was run: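 HTRF read-out at 665/620 nm after 2 h at room temperature. Detection used anti-Tag1 Eu cryptate plus anti-Tag2 XL665 antibodies. Tagged PD-L1 and PD-1 proteins were pre-mixed with compound across twelve […] 1:2 dilutions starting at 200 nM.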

Sequence of PD-1/PD-L1 (Q9NZQ7 19-238 limits assumed): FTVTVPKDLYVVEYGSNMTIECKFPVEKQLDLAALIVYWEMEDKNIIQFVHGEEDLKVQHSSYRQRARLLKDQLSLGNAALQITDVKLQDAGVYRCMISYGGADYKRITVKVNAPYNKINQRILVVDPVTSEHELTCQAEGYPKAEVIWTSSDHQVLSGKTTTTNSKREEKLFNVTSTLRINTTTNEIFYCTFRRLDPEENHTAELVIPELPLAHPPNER

SMILES: COc1nc(-c2cccc(-c3cccc(NC(=O)c4cc5n(n4)CCCC5O)c3C)c2C)cnc1CNC[C@@H]1CCC(=O)N1 (stereo partly drawn) [Compound 110, 4-hydroxy-N-(3'-(6-methoxy-5-(((((S)-5-oxopyrrolidin-2-yl)methyl)amino)methyl)pyrazin-2-yl)-2,2'-dimethyl-[1,1'-biphenyl]-3-yl)-4,5,6,7-tetrahydropyrazolo[1,5-a]pyridine-2-carboxamide]
- IC50: < 10 nM

SMILES: O=C1CC[C@@H](CNCc2ccc(-c3cccc(-c4cccc(NC(=O)c5cc6n(n5)CCCC6O)c4Cl)c3Cl)cc2)N1 (stereo partly drawn) [Compound 111, N-(2,2'-dichloro-4"-(((((S)-5-oxopyrrolidin-2-yl)methyl)amino)methyl)-[1,1':3',1"-terphenyl]-3-yl)-4-hydroxy-4,5,6,7-tetrahydropyrazolo[1,5-a]pyridine-2-carboxamide]
- IC50: < 10 nM

SMILES: COc1cc(-c2cccc(-c3cccc(NC(=O)c4cc5n(n4)CCCC5O)c3C)c2C)cc(F)c1CNC[C@@H]1CCC(=O)N1 (stereo partly drawn) [Compound 112, N-(3"-fluoro-5"-methoxy-2,2'-dimethyl-4"-(((((S)-5-oxopyrrolidin-2-yl)methyl)amino)methyl)-[1,1':3',1"-terphenyl]-3-yl)-4-hydroxy-4,5,6,7-tetrahydropyrazolo[1,5-a]pyridine-2-carboxamide]
- IC50: < 10 nM

SMILES: COc1cc(-c2cccc(-c3cccc(NC(=O)c4cc5n(n4)CCCC5O)c3C)c2C)cc(F)c1CNCCNC(C)=O (stereo not drawn) [Compound 112-1, N-(4"-(((2-acetamidoethyl)amino)methyl)-3"-fluoro-5"-methoxy-2,2'-dimethyl-[1,1':3',1"-terphenyl]-3-yl)-4-hydroxy-4,5,6,7-tetrahydropyrazolo[1,5-a]pyridine-2-carboxamide]
- IC50: < 10 nM

SMILES: COc1cc(-c2cccc(-c3cccc(NC(=O)c4cc5n(n4)CCCC5O)c3C)c2C)cc(F)c1CN1CC[C@@H](O)C1 (stereo partly drawn) [Compound 113, N-(3"-fluoro-4"-(((R)-3-hydroxypyrrolidin-1-yl)methyl)-5"-methoxy-2,2'-dimethyl-[1,1':3',1"-terphenyl]-3-yl)-4-hydroxy-4,5,6,7-tetrahydropyrazolo[1,5-a]pyridine-2-carboxamide]
- IC50: < 10 nM

SMILES: COc1cc(-c2cccc(-c3cccc(NC(=O)c4cc5n(n4)CCCC5O)c3C)c2C)cc(F)c1CNCCO (stereo not drawn) [Compound 114, N-(3"-fluoro-4"-(((2-hydroxyethyl)amino)methyl)-5"-methoxy-2,2'-dimethyl-[1,1':3',1 "-terphenyl]-3-yl)-4-hydroxy-4,5,6,7-tetrahydropyrazolo[1,5-a]pyridine-2-carboxamide]
- IC50: < 10 nM

SMILES: COc1cc(-c2cccc(-c3cccc(NC(=O)c4cc5n(n4)CCCC5N4CC[C@@H](O)C4)c3C)c2C)cc(F)c1CNC(C)(C)C(=O)O (stereo partly drawn) [Compound 115, 2-(((3-fluoro-3"-(4-((R)-3-hydroxypyrrolidin-1-yl)-4,5,6,7-tetrahydropyrazolo[1,5-a]pyridine-2-carboxamido)-5-methoxy-2',2"-dimethyl-[1,1':3',1"-terphenyl]-4-yl)methyl)amino)-2-methylpropanoic acid]
- IC50: < 10 nM

SMILES: COc1cc(-c2cccc(-c3cccc(NC(=O)c4cc5n(n4)CCCC5O)c3Cl)c2Cl)cc(F)c1CNCCNC(C)=O (stereo not drawn) [Compound 116, N-(4"-(((2-acetamidoethyl)amino)methyl)-2,2'-dichloro-3"-fluoro-5"-methoxy-[1,1':3',1"-terphenyl]-3-yl)-4-hydroxy-4,5,6,7-tetrahydropyrazolo[1,5-a]pyridine-2-carboxamide]
- IC50: 10 to 100 nM

SMILES: COc1cc(-c2cccc(-c3cccc(NC(=O)c4cc5n(n4)CCCC5O)c3Cl)c2Cl)cc(F)c1CN1CC[C@@H](O)C1 (stereo partly drawn) [Compound 117, N-(2,2'-dichloro-3"-fluoro-4"-(((R)-3-hydroxypyrrolidin-1-yl)methyl)-5"-methoxy-[1,1':3',1"-terphenyl]-3-yl)-4-hydroxy-4,5,6,7-tetrahydropyrazolo[1,5-a]pyridine-2-carboxamide]
- IC50: 10 to 100 nM

Reference: EP4755888A1 (ILAb Co., Ltd., priority 2023, dated 2025)
